The results in this text go back to patent US10227347B2, “Purinyl-N-hydroxyl pyrimidine formamide derivative, preparation methods and uses thereof” (Guizhou Bailing Group Pharmaceutical CO., LTD., priority 2015, dated 2019).

Read-outs that look alike come from different tables or passages of the source. Some results are limits rather than exact numbers.

For data set [1], the target named is T1, HDAC1 (Homo sapiens, UniProt Q13547).
T1 construct: purchased BPS Bioscience
The data set is described as follows: In vitro HDAC1 enzymatic activity inhibition (Lys-Ac-AMC substrate). The class given is biochemical. In short, it runs like this: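 Fluorogenic Lys-Ac-AMC deacetylation with trypsin development in modified Tris buffer pH 7.0; compound preincubated with enzyme 15 min at ambient temperature before substrate addition. Final HDAC1 6 nM, trypsin 0.05 μM, Ac-peptide 8 μM. IC50 from four-parameter fit of % inhibition versus concentration.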

In data set [2] the target is T2, PI3Kα (Homo sapiens, UniProt P42336).
T2 construct: purchased Invitrogen PV4788
The data set is described as follows: PI3Kα activity inhibition (Kinase-Glo). Type of data set: biochemical. The essentials:
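Kinase-Glo luminescence read-out of remaining ATP after PI3K reaction with PIP2 and ATP substrates in 50 mM HEPES pH 7.5, 3 mM MgCl2, 1 mM EGTA, 100 mM NaCl, 0.03% CHAPS, 2 mM DTT. Incubated at ambient temperature, 1 h for PI3Kα, 2 h for PI3Kδ. IC50 from four-parameter fit of % inhibition versus concentration.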

For data set [3], the target named is T3, PI3Kβ (Homo sapiens, UniProt P42338).
T3 construct: purchased Millipore 14-603-K
The data set is described as follows: PI3Kβ activity inhibition (ADP-Glo). Type of data set: biochemical. The conditions noted are these: Table 1, graded. On the procedure:
(§1) Detecting the inhibition capability of the compound to PI3Kβ and PI3Kγ activities with ADP-Glo (purchased from Promege Company; Catalog No.: v9102/3). […] The reaction system also comprises substrates as PIP2 and ATP. The reaction buffer system comprises 50 mM HEPES, 3 mM MgCl2, 1 mM EGTA, 100 mM NaCl, 0.03% CHAPS and 2 mM DTT. The pH value of the reaction buffer is 7.5. […] Mixing the system evenly for incubation under ambient temperature for 1 h; getting a new 384 well plate and transferring 5 μL reaction liquid from the each well of original 384 well plate to the corresponding wells of the new 384 well plate; adding 5 μL ADP-Glo which has been preheated to ambient temperature into each new reaction well to terminate the reaction; oscillating it slowly in dark place for 40 min's incubation after it is mixed evenly; adding 10 μL testing liquid in each reaction well, oscillating it for 1 min to mix evenly and incubating it for 1 h, then measuring the fluorescence intensity with a microplate reader and analyzing the result data with the software GraphPad Prism.
(§2) Calculating the value of IC50 as per the formula: Y=background data+(top data−background data)/(1+10^((Log IC50−X)*rate of curve))
(§3) Where, Y refers to the inhibition ratio (%) and X refers to the compound concentration.
In general terms: In ADP-Glo the light output rises with the ADP produced.

Data set [4] addresses T4, PI3Kδ (Homo sapiens, UniProt O00329).
T4 construct: purchased Millipore 14-604-K
Put plainly: PI3Kδ activity inhibition (Kinase-Glo). The conditions noted are these: Table 1, graded. Type of data set: biochemical. How it is done: Detecting the inhibition capability of the compound to PI3Kα and PI3Kδ activities with Kinase-Glo (purchased from Promege Company; Catalog No.: V3771). […] The reaction system also comprises substrates as PIP2 (4, 5-diphosphoinositide, purchased from Life Technologies Company) and ATP (triphosadenine, purchased from Sigma Company). The reaction buffer system comprises 50 mM HEPES (4-hydroxyethylpiperazine ethane sulfonic acid), 3 mM MgCl2, 1 mM EGTA (ethylene glycol bis(2-amino ethylether)quadrol), 100 mM NaCl, 0.03% CHAPS (3-[3-(cholamidopropyl)dimethylamino]-1-propanesulfonic acid), 2 mM DTT (dithiothreitol). The pH value of the reaction buffer is 7.5. […] Mixing the system evenly for incubation under ambient temperature (for 1 h in PI3Kα test and for 2 h in PI3Kδ test). After incubation, adding 10 μL Kinase-Glo which has been preheated to ambient temperature into each reaction well to terminate the reaction; shaking it in dark place for 15 min after it is mixed evenly, then measuring the fluorescence intensity with a microplate reader and analyzing the result data with the software GraphPad Prism.
as §2, §3

The target in data set [5] is T5, PI3Kγ (Homo sapiens, UniProt P48736).
T5 construct: purchased Invitrogen PR8641C
Put plainly: PI3Kγ activity inhibition (ADP-Glo). The class given is biochemical. The conditions noted are these: Table 1, graded. On the procedure:
as §1, §2, §3

Data set [6] has as its target T6, mTOR (Homo sapiens, UniProt P42345).
T6 construct: purchased Millipore 14-770
Put plainly: mTOR activity inhibition (ULight-4E-BP1 peptide). The note with it: Table 1, graded. The class given is biochemical. How it is done:
mTOR protein is purchased from Millipore Company (Catalog No.: 14-770). The reaction buffer system comprises 50 mM HEPES, 10 mM MgCl2, 1 mM EGTA, 3 mM […], 0.01% Tween-20 (purchased from Chengdu Kelong Chemical Regent Factory) and 2 mM DTT. The pH value of the reaction buffer is 7.5. Preparing 10 μL reaction system in corresponding wells of the 384 well plate, which contains the compositions as: the compound with designed concentration (or blank control), mTOR protein (with the concentration of 2.5 nM), ULight-4E-BP1 (containing the 37th and the 46th threonine residues, Thr37/46) peptide (purchased from PE Company, Catalog No.: TRF0128-M) and ATP substrates (ULight-4E-BP1 peptide, with the concentration of 50 nM and ATP, with the concentration of […]). Mixing it evenly for incubation under ambient temperature for 1 h; adding 10 μL testing liquid containing EDTA (ethylenediaminetetraacetic acid) and Eu-anti-phosphorylation-4E-BP1 (Thr37/46) antibody (purchased from PE Company, Catalog No.: TRF0216-M) into the reaction wells (after the testing liquid is added, the concentration of EDTA is 8 mM and the concentration of Eu-phosphorylation-4E-BP1 antibody is 2 nM); mixing it evenly and incubating it for 1 h under ambient temperature, then measuring the fluorescence intensity with a microplate reader and analyzing the result data with the software GraphPad Prism.
as §2, §3

Data set [7] relates to MV4-11 cells (acute myeloid leukemia). Put plainly: Cell proliferation inhibition, MV4-11 (cck-8). Type of data set: cell-based. The note with it: Homo sapiens, 96 h incubation, read-out: Proliferation IC50, Acute myeloid leukemia MV4-11. How it is done: (§4) The tumor cell lines are purchased from American Type Culture Collection (ATCC) and cultivated to the status of logarithmic growth as per the cultural method recommended by ATCC. The cells in logarithmic phase are spread on a 96 well plate as per 2000-3000/well; as for anchorage-dependent cells, the compound should be added in the test wells at certain concentration for incubation for 96 h after cell adherence. Determining cell proliferation activities with method MTT for tumor cells representing solid tumor model and with method cck-8 for tumor cells representing hematologic tumor model, and analyzing the result data with the software GraphPad Prism.
(§5) Calculating the value of IC50 as per the formula: Y=background data+(top data−background data)/(1+10^((Log IC50−X)*rate of curve)). Where, Y refers to the inhibition ratio (%) and X refers to the compound concentration.

Data set [8] deals with hct116 cells (colon cancer). Put plainly: Cell proliferation inhibition, hct116 (MTT). The conditions noted are these: Homo sapiens, HCT-116; 96 h incubation; read-out: Proliferation IC50, Colon cancer hct116. Type of data set: cell-based. How it is done:
as §4, §5

Data set [9] has as its system A2780s cells (ovarian cancer). Put plainly: Cell proliferation inhibition, A2780s (MTT). The class given is cell-based. The note with it: Homo sapiens, 96 h incubation, read-out: Proliferation IC50, Ovarian cancer A2780s. How it is done:
as §4, §5

Data set [10] relates to human breast cancer MDA-MB-231 subcutaneous tumor. Put plainly: Subcutaneous tumor model, human breast cancer MDA-MB-231. The conditions noted are these: 30 mg/kg, once per 7 days, intraperitoneal. How it is done:
Cell MM1S is cultured in RPMI1640 medium (HyClone) which contains 10% fetal calf serum (Hohhot Caoyuan Lvye Bioengineering Material Co., Ltd.) and 100 U/mL penicillin and streptomycin (Beyotime).
3) Inoculation, grouping and treatment: collecting cells in logarithmic phase under aseptic conditions and counting; diluting the single cell suspension with the medium containing neither fetal calf serum nor antibiotics to 1×10^7-8 cell/mL for standby. Mixing the cell suspension; injecting 100 μL of cell suspension (5×10^6-2×10^7 cells) subcutaneously with a 1 mL injector on the right side of the back of animals. Weeding out the animals with oversized and undersized tumor when the tumor grows to an average volume of about 120 mm^3 and grouping the qualified animals for treatment and drug administration. Refer to Table 7 for each grouping model and drug administration frequency. Measuring the weight of each model per 2 days and measuring the length and width of the tumor with a vernier caliper; killing the tested animals through cervical dislocation and peeling off their tumors for weight measuring and photographing. Then calculating the tumor inhibition ratio (%) and evaluating the inhibition intensity to tumor with such tumor inhibition ratio.

For data set [11], the system named is human breast cancer MCF-7 subcutaneous tumor. The data set is described as follows: Subcutaneous tumor model, human breast cancer MCF-7. The note with it: 30 mg/kg, once per 7 days, intraperitoneal.
The mark [12] stands for this setting: Table 1, graded, read-out: HDAC1 IC50.
Setting [13] is: read-out: inhibition value IC50 to the activity of HDAC1.
Setting [14] is: Table 1, graded, read-out: PI3Kα IC50.

T1 sequence (Q13547 whole entry, species assumed): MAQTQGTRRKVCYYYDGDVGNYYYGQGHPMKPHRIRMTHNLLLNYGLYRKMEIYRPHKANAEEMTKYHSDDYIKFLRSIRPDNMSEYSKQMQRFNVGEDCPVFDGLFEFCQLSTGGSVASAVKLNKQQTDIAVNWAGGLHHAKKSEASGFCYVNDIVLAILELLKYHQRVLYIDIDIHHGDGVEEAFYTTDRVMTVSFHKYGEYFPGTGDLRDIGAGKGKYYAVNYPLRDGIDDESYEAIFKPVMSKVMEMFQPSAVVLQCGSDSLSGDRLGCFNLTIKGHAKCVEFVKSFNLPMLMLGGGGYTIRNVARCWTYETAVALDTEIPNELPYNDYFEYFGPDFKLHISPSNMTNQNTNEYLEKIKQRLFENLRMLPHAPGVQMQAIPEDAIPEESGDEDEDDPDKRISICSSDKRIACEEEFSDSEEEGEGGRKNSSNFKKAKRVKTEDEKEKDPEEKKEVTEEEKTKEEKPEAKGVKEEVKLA
T2 sequence (P42336 whole entry, species assumed): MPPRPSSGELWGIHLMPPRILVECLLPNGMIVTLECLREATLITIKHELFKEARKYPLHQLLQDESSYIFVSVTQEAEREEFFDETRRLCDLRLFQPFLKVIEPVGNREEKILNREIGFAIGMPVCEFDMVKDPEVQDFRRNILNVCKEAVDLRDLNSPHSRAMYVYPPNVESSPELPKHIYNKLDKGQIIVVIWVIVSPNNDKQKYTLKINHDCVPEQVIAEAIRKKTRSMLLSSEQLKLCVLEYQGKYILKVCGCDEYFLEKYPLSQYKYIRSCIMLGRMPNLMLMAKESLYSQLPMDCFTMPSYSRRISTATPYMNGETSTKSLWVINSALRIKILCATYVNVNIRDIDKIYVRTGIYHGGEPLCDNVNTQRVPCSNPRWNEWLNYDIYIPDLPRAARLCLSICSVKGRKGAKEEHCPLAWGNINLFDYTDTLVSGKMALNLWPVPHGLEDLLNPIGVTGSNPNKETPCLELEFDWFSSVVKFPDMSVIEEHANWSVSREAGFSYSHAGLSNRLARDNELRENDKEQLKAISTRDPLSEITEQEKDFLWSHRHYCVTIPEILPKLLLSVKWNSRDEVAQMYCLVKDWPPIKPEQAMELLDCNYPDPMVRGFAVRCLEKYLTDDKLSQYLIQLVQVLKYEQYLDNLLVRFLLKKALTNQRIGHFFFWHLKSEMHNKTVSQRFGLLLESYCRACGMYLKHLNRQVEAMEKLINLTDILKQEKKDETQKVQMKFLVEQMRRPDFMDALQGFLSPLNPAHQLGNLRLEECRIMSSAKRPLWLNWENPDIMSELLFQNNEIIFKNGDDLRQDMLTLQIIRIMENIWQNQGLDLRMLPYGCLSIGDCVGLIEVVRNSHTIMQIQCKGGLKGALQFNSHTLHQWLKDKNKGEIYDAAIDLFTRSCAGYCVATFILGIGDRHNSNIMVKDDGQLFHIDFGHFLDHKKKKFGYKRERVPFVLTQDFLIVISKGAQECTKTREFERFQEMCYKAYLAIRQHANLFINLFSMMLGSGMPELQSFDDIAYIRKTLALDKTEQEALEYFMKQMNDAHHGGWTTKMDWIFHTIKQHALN
T2 sequence (P27986 whole entry partner, species assumed): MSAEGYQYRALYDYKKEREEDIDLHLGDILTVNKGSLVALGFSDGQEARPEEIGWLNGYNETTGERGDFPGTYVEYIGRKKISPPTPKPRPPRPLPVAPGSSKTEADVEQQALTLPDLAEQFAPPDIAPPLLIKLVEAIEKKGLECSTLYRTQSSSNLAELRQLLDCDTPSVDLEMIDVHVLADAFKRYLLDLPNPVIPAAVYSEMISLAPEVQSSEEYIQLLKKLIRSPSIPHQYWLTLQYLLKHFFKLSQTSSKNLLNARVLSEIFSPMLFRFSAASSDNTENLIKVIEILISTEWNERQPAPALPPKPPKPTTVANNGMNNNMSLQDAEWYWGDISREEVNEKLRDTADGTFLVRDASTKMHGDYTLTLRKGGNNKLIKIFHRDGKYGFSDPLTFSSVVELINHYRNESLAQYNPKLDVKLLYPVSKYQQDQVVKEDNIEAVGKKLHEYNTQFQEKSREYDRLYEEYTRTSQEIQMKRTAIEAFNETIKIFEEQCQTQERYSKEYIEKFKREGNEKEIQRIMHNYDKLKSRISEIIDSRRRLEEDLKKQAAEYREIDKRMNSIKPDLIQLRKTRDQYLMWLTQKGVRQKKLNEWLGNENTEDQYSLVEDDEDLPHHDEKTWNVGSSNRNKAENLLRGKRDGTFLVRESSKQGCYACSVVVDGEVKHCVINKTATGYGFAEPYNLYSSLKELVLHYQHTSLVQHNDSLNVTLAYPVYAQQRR
T4 sequence (O00329 whole entry): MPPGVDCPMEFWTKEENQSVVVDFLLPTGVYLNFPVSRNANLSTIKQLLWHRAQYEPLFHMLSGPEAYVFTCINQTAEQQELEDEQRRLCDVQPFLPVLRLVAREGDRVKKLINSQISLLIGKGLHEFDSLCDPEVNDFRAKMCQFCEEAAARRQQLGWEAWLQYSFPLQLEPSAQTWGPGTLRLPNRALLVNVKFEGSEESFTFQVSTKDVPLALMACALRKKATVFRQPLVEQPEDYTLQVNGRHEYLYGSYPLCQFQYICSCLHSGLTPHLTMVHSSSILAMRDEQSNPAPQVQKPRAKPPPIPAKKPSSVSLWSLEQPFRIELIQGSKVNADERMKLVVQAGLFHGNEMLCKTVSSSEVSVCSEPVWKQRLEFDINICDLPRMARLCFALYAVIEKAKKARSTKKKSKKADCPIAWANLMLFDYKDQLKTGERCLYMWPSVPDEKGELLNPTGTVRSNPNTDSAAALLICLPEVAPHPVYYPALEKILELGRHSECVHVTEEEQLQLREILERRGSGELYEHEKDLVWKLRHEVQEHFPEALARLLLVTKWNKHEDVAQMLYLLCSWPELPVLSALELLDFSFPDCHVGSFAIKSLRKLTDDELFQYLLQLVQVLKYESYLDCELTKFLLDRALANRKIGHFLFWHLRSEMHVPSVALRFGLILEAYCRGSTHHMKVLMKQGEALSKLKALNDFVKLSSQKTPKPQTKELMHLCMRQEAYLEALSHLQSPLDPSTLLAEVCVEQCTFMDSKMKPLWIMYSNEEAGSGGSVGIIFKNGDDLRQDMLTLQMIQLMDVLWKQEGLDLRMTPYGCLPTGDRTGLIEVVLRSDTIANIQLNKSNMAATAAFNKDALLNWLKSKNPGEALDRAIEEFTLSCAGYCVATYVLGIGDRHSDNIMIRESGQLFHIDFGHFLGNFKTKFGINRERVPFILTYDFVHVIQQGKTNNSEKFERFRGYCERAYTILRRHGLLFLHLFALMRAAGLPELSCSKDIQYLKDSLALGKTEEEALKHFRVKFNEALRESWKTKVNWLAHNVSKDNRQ
T4 sequence (P27986 whole entry partner): as the sequence (P27986 whole entry partner, species assumed) above
T5 sequence (P48736 whole entry): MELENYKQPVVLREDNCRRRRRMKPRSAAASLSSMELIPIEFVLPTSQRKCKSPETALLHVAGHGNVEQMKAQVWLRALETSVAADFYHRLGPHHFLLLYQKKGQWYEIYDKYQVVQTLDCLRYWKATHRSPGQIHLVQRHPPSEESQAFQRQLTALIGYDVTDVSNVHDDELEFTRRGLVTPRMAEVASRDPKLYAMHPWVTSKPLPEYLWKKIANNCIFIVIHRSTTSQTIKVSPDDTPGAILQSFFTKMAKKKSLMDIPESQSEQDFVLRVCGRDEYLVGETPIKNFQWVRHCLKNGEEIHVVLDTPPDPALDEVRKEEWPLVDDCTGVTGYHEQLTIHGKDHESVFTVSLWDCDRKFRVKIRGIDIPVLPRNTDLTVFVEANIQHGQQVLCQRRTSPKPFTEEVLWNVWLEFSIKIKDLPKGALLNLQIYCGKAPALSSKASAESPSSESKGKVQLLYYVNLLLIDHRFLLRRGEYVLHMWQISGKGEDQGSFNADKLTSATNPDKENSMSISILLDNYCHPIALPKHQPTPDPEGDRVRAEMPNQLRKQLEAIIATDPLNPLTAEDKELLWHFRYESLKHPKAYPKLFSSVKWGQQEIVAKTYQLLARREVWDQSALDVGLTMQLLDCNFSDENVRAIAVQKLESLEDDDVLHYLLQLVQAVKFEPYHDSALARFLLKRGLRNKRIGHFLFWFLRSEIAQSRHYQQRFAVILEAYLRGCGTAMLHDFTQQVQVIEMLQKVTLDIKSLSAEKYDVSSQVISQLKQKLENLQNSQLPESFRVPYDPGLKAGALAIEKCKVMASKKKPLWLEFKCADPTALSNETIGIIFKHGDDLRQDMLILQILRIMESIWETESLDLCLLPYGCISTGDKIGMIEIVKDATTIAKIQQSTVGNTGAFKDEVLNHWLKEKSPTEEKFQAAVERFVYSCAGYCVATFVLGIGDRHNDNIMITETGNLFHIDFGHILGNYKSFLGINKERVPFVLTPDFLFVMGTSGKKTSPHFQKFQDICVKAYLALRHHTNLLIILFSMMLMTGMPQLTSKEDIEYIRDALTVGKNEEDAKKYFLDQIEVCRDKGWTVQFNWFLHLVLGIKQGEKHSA

As for `CCN(Cc1nc2c(N3CCOCC3)nc(-c3ccc(OC)nc3)nc2n1C)c1ncc(C(=O)NO)cn1` [CLJ-5, N-hydroxy-2-(((2-(6-methoxyl-3-pyridyl)-9-methyl-6-morpholine-9H-purine-8-yl))methyl(ethyl)amino)pyrimidine-5-formamide], the IC50 in data set [1] (setting [12]) was 100 to 1000 nM; in [1] (setting [13]), less than 100 nM; in data set [2] (setting [14]) it was less than 100 nM; in data set [2] (read-out: inhibition value IC50 to the activity of PI3Kα) it was less than 100 nM; in [3], 100 to 1000 nM; in data set [4], 100 to 1000 nM. The IC50 in data set [5], in data set [6], in data set [7], in data set [8] and in data set [9] was 100 to 1000 nM each time.
In the case of `CCCN(Cc1nc2c(N3CCOCC3)nc(-c3ccc(OC)nc3)nc2n1C)c1ncc(C(=O)NO)cn1` [CLJ-6, N-hydroxy-2-(((2-(6-methoxyl-3-pyridyl)-9-methyl-6-morpholine-9H-purine-8-yl))methyl(propyl)amino)pyrimidine-5-formamide], the IC50 in [1] (setting [12]) was 100 to 1000 nM; in data set [2] (setting [14]), greater than 10000 nM; in data set [3], greater than 10000 nM; in data set [4], greater than 10000 nM; in data set [5] it was greater than 10000 nM; in data set [6] it was greater than 10000 nM. Besides, the IC50 in data set [7], in [8] and in data set [9] was greater than 1000 nM in each case.
Turning to `CN(Cc1nc2c(N3CCOCC3)nc(-c3ccc(Cl)c(C(F)(F)F)c3)nc2n1C)c1ncc(C(=O)NO)cn1` [CLJ-54, 2-(((2-(-4-chlorine-3-trifluoromethylphenyl)-9-methyl-6-morpholine-9H-purine-8-yl))methyl(methyl)amino)-N-hydroxyl pyrimidine-5-formamide], the IC50 in [1] (setting [12]) was less than 100 nM; in data set [2] (setting [14]), greater than 10000 nM; in data set [7], 100 to 1000 nM; in data set [8] it was 100 to 1000 nM; in [9] it was 100 to 1000 nM.
As for `CN(Cc1nc2c(N3CCOCC3)nc(-c3ccc(C(F)(F)F)cc3)nc2n1C)c1ncc(C(=O)NO)cn1` [CLJ-55], the IC50 in [1] (setting [12]) was less than 100 nM; in data set [2] (setting [14]), greater than 10000 nM; in data set [7] it was 0.1 to 10 nM; in data set [8] it was 10 to 100 nM; in [9], 10 to 100 nM.
As to `CN(Cc1nc2c(N3CCOCC3)nc(-c3cc(C(F)(F)F)cc(C(F)(F)F)c3)nc2n1C)c1ncc(C(=O)NO)cn1` [CLJ-56], the IC50 in data set [1] (setting [12]) was less than 100 nM; in data set [2] (setting [14]), greater than 10000 nM; in [7] it was 10 to 100 nM; in data set [8], 100 to 1000 nM; in [9], 100 to 1000 nM.
In the case of `CN(Cc1nc2c(N3CCOCC3)nc(-c3ccc(S(C)(=O)=O)cc3)nc2n1C)c1ncc(C(=O)NO)cn1` [CLJ-57, 2-(((2-(4-methylsulphonylphenyl)-9-methyl-6-morpholine-9H-purine-8-yl))methyl(methyl)amino)-N-hydroxyl pyrimidine-5-formamide], the IC50 in data set [1] (setting [12]) is less than 1 nM; in data set [1] (setting [13]) it was less than 1 nM; in data set [2] (setting [14]), greater than 10000 nM; in [7] it was 0.1 to 10 nM; in data set [8], 10 to 100 nM; in data set [9], 0.1 to 10 nM.
As for `Cc1ccc(-c2nc(N3CCOCC3)c3nc(CN(C)c4ncc(C(=O)NO)cn4)n(C)c3n2)cc1` [CLJ-60, 2-(((2-(p-methylbenzene)-9-methyl-6-morpholine-9H-purine-8-yl))methyl(methyl)amino)-N-hydroxyl pyrimidine-5-formamide], the IC50 in [1] (setting [12]) is less than 100 nM; in data set [2] (setting [14]), greater than 10000 nM; in data set [7] it was 0.1 to 10 nM; in data set [8] it was 10 to 100 nM; in data set [9] it was 0.1 to 10 nM.
Take `CN(Cc1nc2c(N3CCOCC3)nc(Cl)nc2n1C)c1ncc(C(=O)NO)cn1` [CLJ-68]: the IC50 is less than 100 nM in data set [1] (setting [12]); greater than 10000 nM in [2] (setting [14]); 10 to 100 nM in data set [7]; 10 to 100 nM in data set [8]; 10 to 100 nM in data set [9].
As for `CC(=O)O[C@H]1C(=O)[C@@]2(C)[C@H]([C@H](OC(=O)c3ccccc3)[C@]3(O)C[C@H](OC(=O)[C@H](O)[C@@H](NC(=O)c4ccccc4)c4ccccc4)C(C)=C1C3(C)C)[C@]1(OC(C)=O)CO[C@@H]1C[C@@H]2O` [Paclitaxel], the Death in data set [10] and in data set [11] was 0/6 each time. Moreover, the entries for the “Inhibitory rate (%)” value in [10] and in [11] were 59.19% and 77.73%, respectively.
